{"source": "patent US11820773B2", "about": "“Tricyclic compounds” (ALIGOS THERAPEUTICS, INC., priority 2020, dated 2023)"}
{"tested_on": "HBV", "test": "HBV-DNA antiviral assay using HepG2.117 cells (intracellular HBV DNA by qPCR)", "format": "cell-based, genotype D HBV", "conditions": "Hepatitis B virus, 72 h, HBV DNA inhibition, 3 days incubation, 2% DMSO", "method": "The following assay procedure describes the HBV antiviral assay, using HepG2.117 cells, which carry a stably integrated genotype D HBV genome under the control of a Tet-off promoter, and intracellular HBV DNA quantification as endpoint. Cell viability is assessed in parallel by measuring the intracellular ATP content using CellTiter-Glo 2.0 (Promega).\nOn day 0, HepG2.117 cells (which are maintained in routine cell culture with doxycycline present in the medium at a final concentration of 1 μg/mL) were seeded in 96-well plates (white with clear bottom) at a density of 2.0×10^4 cells/well (0.1 mL/well) in medium without doxycycline to induce pgRNA transcription and subsequent formation of HBV particles. The cells were incubated at 37° C. and 5% CO2.\nOn day 1, medium was removed from each well, the test articles were diluted in culture medium without doxcycyline and 100 μL was added to cell culture wells (9 concentrations, 4-fold dilution). For each plate, 6 untreated (merely DMSO) wells were included. The final concentration of DMSO in the culture medium was 2%. Each plate was prepared in duplicate (one for HBV DNA extraction, one for CellTiter-Glo 2.0 measurement). The cells were incubated at 37° C. and 5% CO2 for 3 days.\nOn day 4, cell viability was assessed using CellTiter-Glo 2.0 and cell lysates were prepared for HBV DNA extraction and subsequent quantification by qPCR.\nHBV DNA Quantification by qPCR\nMedium was removed from each well and 100 μL of 0.33% NP-40 in H2O was added to each well. Plates were sealed, incubated at 4° C. for 5 mins, vortexed extensively and centrifuged briefly. Next, 35 μL of lysate was added to 65 μL QuickExtract DNA Extraction Solution (Epicentre) in a PCR plate for each well. PCR plate was incubated at 65° C. for 6 mins, 98° C. for 2 mins and finally cooled to 4° C. HBV DNA was then quantified by qPCR with HBV-specific primers and probes as specified in Table 1 using the Bio-Rad SSOAdvanced Universal Probes Supermix on a CFX96 machine (Bio-Rad). The PCR cycle program consisted of 95° C. for 3 mins, followed by 40 cycles at 95° C. for 10 sec and 60° C. for 30 sec.\nA DNA standard was prepared by dilution of an IDT gBlock corresponding to the amplicon with concentrations ranging from 10^2 to 10^8 copies/input (i.e. per 4 μL) and used to generate a standard curve by plotting Cq values vs. HBV DNA standard concentration. The quantity of HBV DNA in each sample was determined by interpolating from the standard curve.\nCell viability was calculated as follows: % Cell viability=(luminescence value of test sample)/(average luminescence value of 2% DMSO control)×100%. HBV DNA inhibition was calculated as follows: 100−(HBV DNA copy number of test sample)/(average HBV DNA copy number of 2% DMSO control)×100%. No normalization to entecavir was required due to the excellent dynamic window of this assay. The CC50, EC50 and EC90 values were determined by dose-response curves fitted by GraphPad Prism using “log (agonist) vs. response—Variable slope”.", "units": {"EC50": "nM"}}
{"smiles": "C[C@@H]1Cc2c(n3ncc(Cc4ccccc4)c3n(-c3ccc(-c4noc(=O)n4C)cc3)c2=O)CN1C(=O)c1ccc(Br)c(C(F)(F)F)c1", "note": "(stereo in doubt) [Compound 41a, 4-methyl-3-[4-[rac-(11R)-5-benzyl-12-[4-bromo-3-(trifluoromethyl)benzoyl]-11-methyl-8-oxo-2,3,7,12-tetrazatricyclo[7.4.0.0^2,6]trideca-1(9),3,5-trien-7-yl]phenyl]-1,2,4-oxadiazol-5-one]", "EC50": "< 50"}
{"smiles": "C[C@H]1Cc2c(n3ncc(Cc4ccccc4)c3n(-c3ccc(-c4noc(=O)n4C)cc3)c2=O)CN1C(=O)c1ccc(Br)c(C(F)(F)F)c1", "note": "(stereo in doubt) [Compound 41b, 4-methyl-3-[4-[rac-(11S)-5-benzyl-12-[4-bromo-3-(trifluoromethyl)benzoyl]-11-methyl-8-oxo-2,3,7,12-tetrazatricyclo[7.4.0.0^2,6]trideca-1(9),3,5-trien-7-yl]phenyl]-1,2,4-oxadiazol-5-one]", "EC50": "50 to 500"}
{"smiles": "CNc1n[nH]c2cc(-n3c(=O)c4c(n5ncc(Cc6ccccc6)c35)CN(C(=O)c3ccc(Br)c(C(F)(F)F)c3)[C@H](C)C4)ccc12", "note": "(stereo in doubt) [Compound 43a, rac-(11R)-5-benzyl-12-[4-bromo-3-(trifluoromethyl)benzoyl]-11-methyl-7-[3-(methylamino)-1H-indazol-6-yl]-2,3,7,12-tetrazatricyclo[7.4.0.0^2,6]trideca-1(9),3,5-trien-8-one]", "EC50": "< 50"}
{"smiles": "CNc1n[nH]c2cc(-n3c(=O)c4c(n5ncc(Cc6ccccc6)c35)CN(C(=O)c3ccc(Br)c(C(F)(F)F)c3)[C@@H](C)C4)ccc12", "note": "(stereo in doubt) [Compound 43b, rac-(11S)-5-benzyl-12-[4-bromo-3-(trifluoromethyl)benzoyl]-11-methyl-7-[3-(methylamino)-1H-indazol-6-yl]-2,3,7,12-tetrazatricyclo[7.4.0.0^2,6]trideca-1(9),3,5-trien-8-one]", "EC50": "< 50"}
{"smiles": "C[C@@H]1Cc2c(n3ncc(Cc4ccccc4)c3n(-c3ccc(-c4nc(=O)on4C)cc3)c2=O)CN1C(=O)c1ccc(Br)c(C(F)(F)F)c1", "note": "(stereo in doubt) [Compound 44a, 2-methyl-3-[4-[rac-(11R)-5-benzyl-12-[4-bromo-3-(trifluoromethyl)benzoyl]-11-methyl-8-oxo-2,3,7,12-tetrazatricyclo[7.4.0.0^2,6]trideca-1(9),3,5-trien-7-yl]phenyl]-1,2,4-oxadiazol-5-one]", "EC50": "< 50"}
{"smiles": "C[C@H]1Cc2c(n3ncc(Cc4ccccc4)c3n(-c3ccc(-c4nc(=O)on4C)cc3)c2=O)CN1C(=O)c1ccc(Br)c(C(F)(F)F)c1", "note": "(stereo in doubt) [Compound 44b, 2-methyl-3-[4-[rac-(11S)-5-benzyl-12-[4-bromo-3-(trifluoromethyl)benzoyl]-11-methyl-8-oxo-2,3,7,12-tetrazatricyclo[7.4.0.0^2,6]trideca-1(9),3,5-trien-7-yl]phenyl]-1,2,4-oxadiazol-5-one]", "EC50": "< 50"}
{"smiles": "C[C@@H]1Cc2c(n3ncc(CC4CCC4)c3n(-c3ccc(-c4nncn4C)cc3)c2=O)CN1C(=O)c1ccc(Br)c(C(F)(F)F)c1", "note": "(stereo in doubt) [Compound 45a, rac-(11R)-12-[4-bromo-3-(trifluoromethyl)benzoyl]-5-(cyclobutylmethyl)-11-methyl-7-[4-(4-methyl-1,2,4-triazol-3-yl)phenyl]-2,3,7,12-tetrazatricyclo[7.4.0.0^2,6]trideca-1(9),3,5-trien-8-one]", "EC50": "< 50"}
{"smiles": "C[C@H]1Cc2c(n3ncc(CC4CCC4)c3n(-c3ccc(-c4nncn4C)cc3)c2=O)CN1C(=O)c1ccc(Br)c(C(F)(F)F)c1", "note": "(stereo in doubt) [Compound 45b, rac-(11S)-12-[4-bromo-3-(trifluoromethyl)benzoyl]-5-(cyclobutylmethyl)-11-methyl-7-[4-(4-methyl-1,2,4-triazol-3-yl)phenyl]-2,3,7,12-tetrazatricyclo[7.4.0.0^2,6]trideca-1(9),3,5-trien-8-one]", "EC50": "50 to 500"}
{"smiles": "Cc1nnnn1-c1ccc(-n2c(=O)c3c(n4ncc(Cc5ccccc5)c24)CN(C(=O)c2ccc(Br)c(C(F)(F)F)c2)[C@H](C)C3)cc1", "note": "(stereo in doubt) [Compound 46a, rac-(11R)-5-benzyl-12-[4-bromo-3-(trifluoromethyl)benzoyl]-11-methyl-7-[4-(5-methyltetrazol-1-yl)phenyl]-2,3,7,12-tetrazatricyclo[7.4.0.0^2,6]trideca-1(9),3,5-trien-8-one]", "EC50": "< 50"}
{"smiles": "Cc1nnnn1-c1ccc(-n2c(=O)c3c(n4ncc(Cc5ccccc5)c24)CN(C(=O)c2ccc(Br)c(C(F)(F)F)c2)[C@@H](C)C3)cc1", "note": "(stereo in doubt) [Compound 46b, rac-(11S)-5-benzyl-12-[4-bromo-3-(trifluoromethyl)benzoyl]-11-methyl-7-[4-(5-methyltetrazol-1-yl)phenyl]-2,3,7,12-tetrazatricyclo[7.4.0.0^2,6]trideca-1(9),3,5-trien-8-one]", "EC50": "50 to 500"}
{"smiles": "Cc1nnc(-c2ccc(-n3c(=O)c4c(n5ncc(Cc6ccccc6)c35)CN(C(=O)c3ccc(Br)c(C(F)(F)F)c3)[C@H](C)C4)cc2)[nH]1", "note": "(stereo in doubt) [Compound 47a, rac-(11R)-5-benzyl-12-[4-bromo-3-(trifluoromethyl)benzoyl]-11-methyl-7-[4-(5-methyl-4H-1,2,4-triazol-3-yl)phenyl]-2,3,7,12-tetrazatricyclo[7.4.0.0^2,6]trideca-1(9),3,5-trien-8-one]", "EC50": "< 50"}
{"smiles": "Cc1nnc(-c2ccc(-n3c(=O)c4c(n5ncc(Cc6ccccc6)c35)CN(C(=O)c3ccc(Br)c(C(F)(F)F)c3)[C@@H](C)C4)cc2)[nH]1", "note": "(stereo in doubt) [Compound 47b, rac-(11S)-5-benzyl-12-[4-bromo-3-(trifluoromethyl)benzoyl]-11-methyl-7-[4-(5-methyl-4H-1,2,4-triazol-3-yl)phenyl]-2,3,7,12-tetrazatricyclo[7.4.0.0^2,6]trideca-1(9),3,5-trien-8-one]", "EC50": "< 50"}
{"smiles": "C[C@@H]1Cc2c(n3ncc(CC4CCC4)c3n(-c3ccc(-c4nncn4C)cc3)c2=O)CN1C(=O)c1ccc(Br)c(Cl)c1", "note": "(stereo in doubt) [Compound 48a, rac-(11R)-12-(4-bromo-3-chloro-benzoyl)-5-(cyclobutylmethyl)-11-methyl-7-[4-(4-methyl-1,2,4-triazol-3-yl)phenyl]-2,3,7,12-tetrazatricyclo[7.4.0.0^2,6]trideca-1(9),3,5-trien-8-one]", "EC50": "< 50"}
{"smiles": "C[C@H]1Cc2c(n3ncc(CC4CCC4)c3n(-c3ccc(-c4nncn4C)cc3)c2=O)CN1C(=O)c1ccc(Br)c(Cl)c1", "note": "(stereo in doubt) [Compound 48b, rac-(11S)-12-(4-bromo-3-chloro-benzoyl)-5-(cyclobutylmethyl)-11-methyl-7-[4-(4-methyl-1,2,4-triazol-3-yl)phenyl]-2,3,7,12-tetrazatricyclo[7.4.0.0^2,6]trideca-1(9),3,5-trien-8-one]", "EC50": "50 to 500"}
{"smiles": "C[C@@H]1Cc2c(n3ncc(Cc4ccccc4)c3n(-c3ccc(-c4ncnn4C)cc3)c2=O)CN1C(=O)c1ccc(Br)c(C(F)(F)F)c1", "note": "(stereo in doubt) [Compound 49a, rac-(11R)-5-benzyl-12-[4-bromo-3-(trifluoromethyl)benzoyl]-11-methyl-7-[4-(2-methyl-1,2,4-triazol-3-yl)phenyl]-2,3,7,12-tetrazatricyclo[7.4.0.0^2,6]trideca-1(9),3,5-trien-8-one]", "EC50": "< 50"}
{"smiles": "C[C@H]1Cc2c(n3ncc(Cc4ccccc4)c3n(-c3ccc(-c4ncnn4C)cc3)c2=O)CN1C(=O)c1ccc(Br)c(C(F)(F)F)c1", "note": "(stereo in doubt) [Compound 49b, rac-(11S)-5-benzyl-12-[4-bromo-3-(trifluoromethyl)benzoyl]-11-methyl-7-[4-(2-methyl-1,2,4-triazol-3-yl)phenyl]-2,3,7,12-tetrazatricyclo[7.4.0.0^2,6]trideca-1(9),3,5-trien-8-one]", "EC50": "50 to 500"}
{"smiles": "CNC(=O)c1ccc(-n2c(=O)c3c(n4ncc(CC(C)C)c24)CN(C(=O)c2ccc(Br)c(C(F)(F)F)c2)[C@H](C)C3)cc1", "note": "(stereo in doubt) [Compound 50a, N-methyl-4-[rac-(11R)-12-[4-bromo-3-(trifluoromethyl)benzoyl]-5-isobutyl-11-methyl-8-oxo-2,3,7,12-tetrazatricyclo[7.4.0.0^2,6]trideca-1(9),3,5-trien-7-yl]benzamide]", "EC50": "< 50"}
